#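 1) Cells in 96-well plates. 2) Compound, 48 h, 5 concentrations. 3) Linear interpolation between surrounding doses. 4) Unreached endpoint = highest concentration. The concentration for 50% growth inhibition is given as GI50. TGI denotes the concentration required for complete inhibition of growth.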
# How the values were obtained:
# Assay in all cases: NCI tumour cell line growth inhibition, 48 h
# SNB-19 CNS = test system: SNB-19 CNS
# SK-MEL-2 melanoma = test system: SK-MEL-2 melanoma
# OVCAR-3 ovarian = test system: OVCAR-3 ovarian
# KM12 colon = test system: KM12 colon
# UACC-257 melanoma = test system: UACC-257 melanoma
# IGROV1 ovarian = test system: IGROV1 ovarian
# HCT-15 colon = test system: HCT-15 colon
# MCF7 breast = test system: MCF7 breast
# OVCAR-5 ovarian = test system: OVCAR-5 ovarian
# HCC-2998 colon = test system: HCC-2998 colon
# CAKI-1 renal = test system: CAKI-1 renal
# RXF 393 renal = test system: RXF 393 renal
# HL-60(TB) leukemia = test system: HL-60(TB) leukemia
# HOP-92 NSCLC = test system: HOP-92 NSCLC
# OVCAR-4 ovarian = test system: OVCAR-4 ovarian
# A498 renal = test system: A498 renal
# SK-OV-3 ovarian = test system: SK-OV-3 ovarian
# SK-MEL-28 melanoma = test system: SK-MEL-28 melanoma
# TK-10 renal = test system: TK-10 renal
# RPMI-8226 leukemia = test system: RPMI-8226 leukemia
# NCI-H460 lung = test system: NCI-H460 lung
# MDA-MB-435 = test system: MDA-MB-435
# HCT-116 colon = test system: HCT-116 colon
# U251 CNS = test system: U251 CNS
# OVCAR-8 ovarian = test system: OVCAR-8 ovarian
# T-47D breast = test system: T-47D breast
# DU-145 prostate = test system: DU-145 prostate
# SF-539 CNS = test system: SF-539 CNS
# HT29 colon = test system: HT29 colon
# NCI/ADR-RES ovarian = test system: NCI/ADR-RES ovarian
# UACC-62 melanoma = test system: UACC-62 melanoma
# SF-295 CNS = test system: SF-295 CNS
# NCI-H522 lung = test system: NCI-H522 lung
# 786-0 renal = test system: 786-0 renal
# A549 NSCLC = test system: A549 NSCLC
# SR leukemia = test system: SR leukemia
# UO-31 renal = test system: UO-31 renal
# MOLT-4 leukemia = test system: MOLT-4 leukemia
# ACHN renal = test system: ACHN renal
# MALME-3M melanoma = test system: MALME-3M melanoma
# M14 melanoma = test system: M14 melanoma
# MDA-MB-231 breast = test system: MDA-MB-231 breast
# LOX IMVI melanoma = test system: LOX IMVI melanoma
# BT-549 breast = test system: BT-549 breast
# SN12C renal = test system: SN12C renal
# SF-268 CNS = test system: SF-268 CNS
# EKVX NSCLC = test system: EKVX NSCLC
# NCI-H226 lung = test system: NCI-H226 lung
# CCRF-CEM leukemia = test system: CCRF-CEM leukemia
# SW-620 colon = test system: SW-620 colon
# NCI-H23 lung = test system: NCI-H23 lung
# SK-MEL-5 melanoma = test system: SK-MEL-5 melanoma
# PC-3 prostate = test system: PC-3 prostate
# SNB-75 CNS = test system: SNB-75 CNS
# K-562 leukemia = test system: K-562 leukemia
# COLO 205 colon = test system: COLO 205 colon
# HS 578T breast = test system: HS 578T breast
# HOP-62 NSCLC = test system: HOP-62 NSCLC
smiles,measurement,setting,value
CCCn1cnc2c(c1=N)C(c1ccc(F)cc1)c1sc3c(C)cccc3c1O2 (stereo unspecified),GI50,SNB-19 CNS,2400 nM
same,TGI,SNB-19 CNS,18.4 µM
same,GI50,SK-MEL-2 melanoma,5.41 µM
same,TGI,SK-MEL-2 melanoma,30.1 µM
same,GI50,OVCAR-3 ovarian,815 nM
same,TGI,OVCAR-3 ovarian,10.6 µM
same,GI50,KM12 colon,1630 nM
same,TGI,KM12 colon,> 36.3 µM
same,GI50,UACC-257 melanoma,15.6 µM
same,TGI,UACC-257 melanoma,39.5 µM
same,GI50,IGROV1 ovarian,1230 nM
same,TGI,IGROV1 ovarian,13.1 µM
same,GI50,HCT-15 colon,1050 nM
same,TGI,HCT-15 colon,12.7 µM
same,GI50,MCF7 breast,351 nM
same,TGI,MCF7 breast,13.8 µM
same,GI50,OVCAR-5 ovarian,3.66 µM
same,TGI,OVCAR-5 ovarian,18.4 µM
same,GI50,HCC-2998 colon,2010 nM
same,TGI,HCC-2998 colon,6.08 µM
same,GI50,CAKI-1 renal,546 nM
same,TGI,CAKI-1 renal,> 39.5 µM
same,GI50,RXF 393 renal,227 nM
same,TGI,RXF 393 renal,741 nM
same,GI50,HL-60(TB) leukemia,1480 nM
same,TGI,HL-60(TB) leukemia,7.87 µM
same,GI50,HOP-92 NSCLC,458 nM
same,TGI,HOP-92 NSCLC,7.5 µM
same,GI50,OVCAR-4 ovarian,2790 nM
same,TGI,OVCAR-4 ovarian,> 42.5 µM
same,GI50,A498 renal,584 nM
same,TGI,A498 renal,3.95 µM
same,GI50,SK-OV-3 ovarian,2230 nM
same,TGI,SK-OV-3 ovarian,38.8 µM
same,GI50,SK-MEL-28 melanoma,5.79 µM
same,TGI,SK-MEL-28 melanoma,22.7 µM
same,GI50,TK-10 renal,16.1 µM
same,TGI,TK-10 renal,61.5 µM
same,GI50,RPMI-8226 leukemia,961 nM
same,TGI,RPMI-8226 leukemia,7.91 µM
same,GI50,NCI-H460 lung,1050 nM
same,TGI,NCI-H460 lung,11.5 µM
same,GI50,MDA-MB-435,328 nM
same,TGI,MDA-MB-435,1270 nM
same,GI50,HCT-116 colon,467 nM
same,TGI,HCT-116 colon,11.8 µM
same,GI50,U251 CNS,2070 nM
same,TGI,U251 CNS,18.1 µM
same,GI50,OVCAR-8 ovarian,3.79 µM
same,TGI,OVCAR-8 ovarian,31 µM
same,GI50,T-47D breast,1970 nM
same,TGI,T-47D breast,41.9 µM
same,GI50,DU-145 prostate,3.34 µM
same,TGI,DU-145 prostate,29.5 µM
same,GI50,SF-539 CNS,1160 nM
same,TGI,SF-539 CNS,5.07 µM
same,GI50,HT29 colon,3.16 µM
same,TGI,HT29 colon,12.8 µM
same,GI50,NCI/ADR-RES ovarian,425 nM
same,TGI,NCI/ADR-RES ovarian,6.99 µM
same,GI50,UACC-62 melanoma,443 nM
same,TGI,UACC-62 melanoma,13.8 µM
same,GI50,SF-295 CNS,581 nM
same,TGI,SF-295 CNS,11 µM
same,GI50,NCI-H522 lung,400 nM
same,TGI,NCI-H522 lung,12.1 µM
same,GI50,786-0 renal,1080 nM
same,TGI,786-0 renal,14.5 µM
same,GI50,A549 NSCLC,2150 nM
same,TGI,A549 NSCLC,> 48.8 µM
same,GI50,SR leukemia,648 nM
same,TGI,SR leukemia,15.6 µM
same,GI50,UO-31 renal,662 nM
same,TGI,UO-31 renal,15.1 µM
same,GI50,MOLT-4 leukemia,3.48 µM
same,TGI,MOLT-4 leukemia,> 54.2 µM
same,GI50,ACHN renal,1450 nM
same,TGI,ACHN renal,16.1 µM
same,GI50,MALME-3M melanoma,2660 nM
same,TGI,MALME-3M melanoma,24.2 µM
same,GI50,M14 melanoma,637 nM
same,TGI,M14 melanoma,11.3 µM
same,GI50,MDA-MB-231 breast,3.09 µM
same,TGI,MDA-MB-231 breast,15.7 µM
same,GI50,LOX IMVI melanoma,962 nM
same,TGI,LOX IMVI melanoma,13.2 µM
same,GI50,BT-549 breast,5.84 µM
same,TGI,BT-549 breast,22.8 µM
same,GI50,SN12C renal,2940 nM
same,TGI,SN12C renal,14.9 µM
same,GI50,SF-268 CNS,2710 nM
same,TGI,SF-268 CNS,21.9 µM
same,GI50,EKVX NSCLC,3.7 µM
same,TGI,EKVX NSCLC,27.6 µM
same,GI50,NCI-H226 lung,2870 nM
same,TGI,NCI-H226 lung,15.1 µM
same,GI50,CCRF-CEM leukemia,1030 nM
same,TGI,CCRF-CEM leukemia,> 43.8 µM
same,GI50,SW-620 colon,1320 nM
same,TGI,SW-620 colon,18.8 µM
same,GI50,NCI-H23 lung,1620 nM
same,TGI,NCI-H23 lung,10.9 µM
same,GI50,SK-MEL-5 melanoma,1250 nM
same,TGI,SK-MEL-5 melanoma,11.9 µM
same,GI50,PC-3 prostate,638 nM
same,TGI,PC-3 prostate,15.2 µM
same,GI50,SNB-75 CNS,321 nM
same,TGI,SNB-75 CNS,13.8 µM
same,GI50,K-562 leukemia,358 nM
same,TGI,K-562 leukemia,22.6 µM
same,GI50,COLO 205 colon,2600 nM
same,TGI,COLO 205 colon,8.22 µM
same,GI50,HS 578T breast,961 nM
same,TGI,HS 578T breast,14.3 µM
same,GI50,HOP-62 NSCLC,2080 nM
same,TGI,HOP-62 NSCLC,31.1 µM

# — PubChem BioAssay (NCI)
